Assay results: PubChem BioAssay AID2060604 (Molecular Pharmacology Branch, DTP, NCI, 2025)

Tested on: 379773-124-R-J2-PDC complex spheroids, viability % test/control
Assay: Anticancer human tumor 379773-124-R-J2-PDC patient-derived endometrial carcinoma cell line growth inhibition [CLK]
Details: for IC50: curve of first compound; for viability, T/C: stronger effect = lower value
Summary of the method: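 Patient-derived tumor cells grown as complex spheroids with HUVEC endothelial cells and mesenchymal stem cells, treated with drug combinations. Concentrations descend in half-log steps from near clinical Cmax, or from 10 microM if Cmax unknown.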

[1] = second compound 0.0316 µM, first compound 0.0316 µM
[2] = second compound 0.0316 µM, first compound 0.1 µM
[3] = second compound 0.0316 µM, first compound 0.316 µM
[4] = second compound 0.0316 µM, first compound 1 µM
[5] = second compound 0.0316 µM, first compound 3.16 µM
[6] = second compound 0.0316 µM, first compound 10 µM
[7] = second compound 0.1 µM, first compound 0.0316 µM
[8] = second compound 0.1 µM, first compound 0.1 µM
[9] = second compound 0.1 µM, first compound 0.316 µM
[10] = second compound 0.1 µM, first compound 1 µM
[11] = second compound 0.1 µM, first compound 3.16 µM
[12] = second compound 0.1 µM, first compound 10 µM
[13] = second compound 0.316 µM, first compound 0.0316 µM
[14] = second compound 0.316 µM, first compound 0.1 µM
[15] = second compound 0.316 µM, first compound 0.316 µM
[16] = second compound 0.316 µM, first compound 1 µM
[17] = second compound 0.316 µM, first compound 3.16 µM
[18] = second compound 0.316 µM, first compound 10 µM
[19] = second compound 1 µM, first compound 0.0316 µM
[20] = second compound 1 µM, first compound 0.1 µM
[21] = second compound 1 µM, first compound 0.316 µM
[22] = second compound 1 µM, first compound 1 µM
[23] = second compound 1 µM, first compound 3.16 µM
[24] = second compound 1 µM, first compound 10 µM
[25] = second compound 3.16 µM, first compound 0.0316 µM
[26] = second compound 3.16 µM, first compound 0.1 µM
[27] = second compound 3.16 µM, first compound 0.316 µM
[28] = second compound 3.16 µM, first compound 1 µM
[29] = second compound 3.16 µM, first compound 3.16 µM
[30] = second compound 3.16 µM, first compound 10 µM
[31] = second compound 10 µM, first compound 0.0316 µM
[32] = second compound 10 µM, first compound 0.1 µM
[33] = second compound 10 µM, first compound 0.316 µM
[34] = second compound 10 µM, first compound 1 µM
[35] = second compound 10 µM, first compound 3.16 µM
[36] = second compound 10 µM, first compound 10 µM
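Also: compound exposure lasted seven days before the viability readout.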
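For viability, T/C in this document: 100% = DMSO vehicle control wells.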

Compound `CC(CO)NC(=O)c1cc(-c2ccc(Cl)cc2)nn(-c2cnn(C)c2)c1=O` (centres undefined) + CN1CCN(c2cc(C(=O)Nc3cc4cc(-c5cnn(C)c5)ccc4cn3)ccn2)CC1 has an IC50 (second compound 0.0316 µM) of over 10 µM, an IC50 (second compound 0.1 µM) of over 10 µM and an IC50 (second compound 0.316 µM) of under 0.0316 µM. It also gave an IC50 (second compound 1 µM) of under 0.0316 µM, an IC50 (second compound 3.16 µM) of under 0.0316 µM and an IC50 (second compound 10 µM) of under 0.0316 µM. It also gave a viability, T/C [1] of 100%, a viability, T/C [2] of 86.8% and a viability, T/C [3] of 90.3%. It also gave a viability, T/C [4] of 102%, a viability, T/C [5] of 102% and a viability, T/C [6] of 66.5%. The viability, T/C [7] was 96.9%, the viability, T/C [8] was 86.3% and the viability, T/C [9] was 79.8%. The viability, T/C [10] was 105%, the viability, T/C [11] was 75.1% and the viability, T/C [12] was 52.9%. It also gave a viability, T/C [13] of 24.6%, a viability, T/C [14] of 27.9% and a viability, T/C [15] of 33.9%. It also gave a viability, T/C [16] of 32.1%, a viability, T/C [17] of 32.6% and a viability, T/C [18] of 24.4%. The viability, T/C [19] was 0.57%, the viability, T/C [20] was 0.17% and the viability, T/C [21] was 0.46%. The viability, T/C [22] was 0.65%, the viability, T/C [23] was 0.68% and the viability, T/C [24] was 0.88%. It also gave a viability, T/C [25] of 1.45%, a viability, T/C [26] of 0.87% and a viability, T/C [27] of 0.16%. The viability, T/C [28] was 2.5%, the viability, T/C [29] was 1.79% and the viability, T/C [30] was 1.37%. For the same compound, the viability, T/C [31] was 0.55%, the viability, T/C [32] was 0.23% and the viability, T/C [33] was 0.2%. The viability, T/C [34] was 0.85%, the viability, T/C [35] was 0.23% and the viability, T/C [36] was 0.65%.
`O=c1[nH]cc(F)c(=O)[nH]1` + CNC(=O)c1ccc(Nc2nc(OC3CCCC3)c3c(-c4ccc5nc(C)oc5c4)c[nH]c3n2)c(OC)c1 was tested, and the IC50 (second compound 0.0316 µM) was over 10 µM, the IC50 (second compound 0.1 µM) was under 0.0316 µM and the IC50 (second compound 0.316 µM) was under 0.0316 µM. It also gave an IC50 (second compound 1 µM) of under 0.0316 µM, an IC50 (second compound 3.16 µM) of under 0.0316 µM and an IC50 (second compound 10 µM) of under 0.0316 µM. It also gave a viability, T/C [1] of 86.5%, a viability, T/C [2] of 76.3% and a viability, T/C [3] of 80.7%. For the same compound, the viability, T/C [4] was 70.5%, the viability, T/C [5] was 70.8% and the viability, T/C [6] was 54.5%. The viability, T/C [7] was 50.4%, the viability, T/C [8] was 35.9% and the viability, T/C [9] was 31.5%. For the same compound, the viability, T/C [10] was 33.3%, the viability, T/C [11] was 29.7% and the viability, T/C [12] was 28.2%. It also gave a viability, T/C [13] of 41%, a viability, T/C [14] of 35.2% and a viability, T/C [15] of 34.5%. The viability, T/C [16] was 33.7%, the viability, T/C [17] was 24% and the viability, T/C [18] was 18.1%. The viability, T/C [19] was 36.9%, the viability, T/C [20] was 29.2% and the viability, T/C [21] was 30.5%. It also gave a viability, T/C [22] of 27.2%, a viability, T/C [23] of 20.2% and a viability, T/C [24] of 10.7%. For the same compound, the viability, T/C [25] was 36.1%, the viability, T/C [26] was 37.1% and the viability, T/C [27] was 34.8%. The viability, T/C [28] was 19.3%, the viability, T/C [29] was 15.3% and the viability, T/C [30] was 9.65%. It also gave a viability, T/C [31] of 42.5%, a viability, T/C [32] of 31.3% and a viability, T/C [33] of 28.6%. The viability, T/C [34] was 23.5%, the viability, T/C [35] was 14.4% and the viability, T/C [36] was 9.98%.
